US20180355369A1, “Method for Increasing Plant Stress Tolerance and Seed Dormancy” (The Australian National University, priority 2015, published 2018)
*1 amine or outer side, *2 acyl side, *3 side chain or, on linkers, in order; H or OH if unused. Where a SMILES comes first, the peptide text is derived from it. Bridges are numbered along the chain shown (N, C = ends). Roman numbers before positions name the chains, in order. [ ]: non-standard residue; d: D form. Actinocin(9to1) = Cc1c2oc3c(C)ccc(C(=O)[*:1])c3nc-2c(C(=O)[*:2])c(N)c1=O; NMeV = CN[C@H](C(=O)O)C(C)C; Sar = CNCC(=O)O

How the values were obtained:
stomata = test: Stomatal aperture in epidermal leaf peels; type: cell-based, Arabidopsis; conditions: for stomatal closure response to exogenous PAP with co-treatment: LiCl (SAL1 inhibitor) or ATP (PAP antiporter co-substrate) with PAP; for effect of inhibitor on ABA-induced stomatal closure: epidermal peels treated with ABA plus inhibitor
Description: (§1) Five- to six-week-old plants were used to prepare epidermal peels. ABA at a concentration of 20 μM in water was root fed to hydroponically grown plants or sprayed onto leaves using a Studio Series IS-875 with a 0.5 mm nozzle opening (Iwata). We investigated if PAP accumulation in the double mutants could affect the production of NO during ABA-induced stomatal closure by treating epidermal peels with the inhibitor of NO synthase N(G)-methyl-L-arginine (NMA). For the investigation of the effect of different chemicals on stomatal closure, 20 μM ABA (Sigma-Aldrich), 100 mM LiCl, or 1 mM ATP, 1 mM or 100 μM PAP (Sigma-Aldrich) alone or in different combinations were prepared in infiltration buffer (1 mM PIPES KOH pH 6.0, 1 mM Sodium citrate, 1 mM KCl, 15 mM Sucrose) modified from a cordycepin infiltration buffer.
Measurements of stomatal aperture were performed with epidermal strips taken from five- to six-week-old plants. Fully developed leaves were cut and placed with their adaxial side onto cello tape. The vein was removed by razor blade and the abaxial epidermis was subsequently peeled off by using another strip of cello tape. To promote stomatal opening, the peels left adhered to the Scotch (810D Magic Tape, ¾ inch, 3M) were placed in petri dishes filled with stomatal opening solution (10 mM MES, 5 mM KCl, 50 μM CaCl2, pH 6.5) and incubated for 2 h at 22° C. under 150-200 μmol photons m^−2 s^−1 of light. Once the stomata were fully open, strips were maintained in the opening buffer or treated with various compounds according to the experiment. After treatment, photographs of stomata were taken using Leica microscope (Leica Microsystems, Wetzlar, Germany) at 20×. Stomatal aperture was measured using the image-processing software ImageJ. For stomatal aperture measurements, the ratio of stomatal pore width and length was used instead of width as this normalizes the pores of stomata of different size. Small stomata with a stomatal pore length of less than 7.5 μm were discarded. For each data point, 90 stomata were measured in 3 independent experiments. In each experiment, 10 stomata were measured in 3 epidermal strips per sample per treatment.
Measurements of stomatal closure in response to ABA, PAP, cordycepin and ATP treatments were performed on epidermal strips from Arabidopsis and barley plants grown under specific conditions. Plants were grown under high humidity (approximately 80% RH) and 12 h/12 h and 22/20° C. light/dark cycle in a growth chamber. Epidermal peels of newly expanding true leaves of three to four-week old plants. Stomatal apertures were measured in epidermal peels of newly expanded leaves. Peels were taken from the abaxial leaf surface and were fixed to the glass bottom of the experimental chamber after coating the chamber surface with an optically clear and pressure-sensitive silicon adhesive (Factor II, Tucson, USA). The attached epidermal peel is subsequently immersed in an opening buffer (OB: 50 mM KCl, 5 mM MES titrated to pH 6.1 with NaOH) and incubated, at plant growth conditions, for approximately 2 h. Stomatal images were taken using a bright-field microscope capable of 400× magnification for 10 minutes in OB and subsequently in Measuring Buffer [MB: 10 mM KCl, 5 mM MES titrated to pH 6.1 with Ca(OH)2] or PAP or cordycepin or ABA (dissolved in MB) for another 50 min. In total this was a 60 minute time course and images of the epidermal section were taken every 5 minutes using NIS Elements software (Nikon, Japan). Stomata aperture width and length were measured using Image J (NIH, USA). The pore area of each stomate was calculated using these values under the assumption that the area of a stomatal pore was that of an ellipse. Data are expressed as percentage over the control.

guard cells = test: ROS accumulation in guard cells of epidermal peels; type: cell-based, Arabidopsis; conditions: wild type, ost1-2 and ost1-2 alx8
Description: The ABA- and PAP-induced accumulation of ROS in guard cells of epidermal peels was measured using dichlorofluorescein diacetate (H2DCFDA, Invitrogen). After 2 h of incubation in OB, the epidermal peel was incubated with 20 μM dye dissolved in DMSO and MB for 30 min, and then rinsed with MB three times. Epidermal peels were incubated in ABA or PAP dissolved in MB (or MB only as a negative control) for 10 min. Fluorescence images were taken using a Leica inverted confocal microscope controlled by the LAS AF software (Leica Microsystems, Germany). We used the 496-nm excitation line of an argon multiline laser. H2DCFDA fluorescence emission was detected at 505 to 525 nm. Chloroplast fluorescence was detected at 680 to 700 nm in order to separate the autofluorescence of chlorophyll in guard cells. Images were quantified with Image J software (National Institutes of Health, USA). The background signal was measured from the empty region of the similar size and subtracted from the stomata signal to obtain corrected total stomatal fluorescence values. Each stomate was considered to represent a single biological unit and thus fluorescence values were averaged across all stomata at each time point for each treatment. At least three biological replicates were measured for each treatment.

[1] = PAP quantification in leaves after exogenous ABA; type: in vivo, Arabidopsis; conditions: wild type leaves
Description: as §1
(§2) Total adenosines were extracted with 0.1 M HCl, derivatization with chloroacetaldehyde and quantified fluorometrically after HPLC fractionation. 3′-phosphoadenosine 5′-phosphate (PAP) quantification was performed by integrating the HPLC peak area and converting these to pmol units using standard curves of 1, 5 and 10 pmol standard.

[2] = PAP accumulation in leaves after petiole feeding; type: in vivo, Arabidopsis; conditions: petiole feeding of PAP for 1 h, alone or co-applied with LiCl or ATP
Description: as §1, §2

[3] = Accumulation of PAP analogues in leaves post-spraying; type: in vivo, Arabidopsis thaliana; conditions: foliar spray 100 mM, soil-grown wild type plants; 1 hr, 4 hr, 1 d, 4 d
Description: Five week-old soil-grown wild type Arabidopsis plants were sprayed using a Studio Series IS-875 with a 0.5 mm nozzle opening (Iwata). Each plant was sprayed with approximately 100 μl of different PAP analogues (100 mM) or mock buffer (1% DMSO) and then returned to standard growth conditions. 100 mg leaf tissue was harvested and snap-frozen in liquid nitrogen at various timepoints post-spraying (1 hr, 4 hr, 1 d and 4 d). Total adenosines were extracted, derivatized and quantified by HPLC. Identification and quantification of Analogues 8, 12 and 13 were performed by comparison to authentic standards. Triplicate treatments were carried out, and data presented as mean+/−standard deviation.

AtSAL1 = biological target: T1, AtSAL1 (Arabidopsis thaliana, UniProt Q42546); test: Inhibition of in vitro AtSAL1 activity against PAP; type: biochemical; conditions: against 50 μM PAP, Analogue 12 at 0, 3.35, 13.4 or 50 μM
T1 construct: Ubiquitin fusion partner (pHUE vector) (cleaved yes); made in house; host or cells: Escherichia coli BL21 DE3
T1 sequence (Q42546 1-353): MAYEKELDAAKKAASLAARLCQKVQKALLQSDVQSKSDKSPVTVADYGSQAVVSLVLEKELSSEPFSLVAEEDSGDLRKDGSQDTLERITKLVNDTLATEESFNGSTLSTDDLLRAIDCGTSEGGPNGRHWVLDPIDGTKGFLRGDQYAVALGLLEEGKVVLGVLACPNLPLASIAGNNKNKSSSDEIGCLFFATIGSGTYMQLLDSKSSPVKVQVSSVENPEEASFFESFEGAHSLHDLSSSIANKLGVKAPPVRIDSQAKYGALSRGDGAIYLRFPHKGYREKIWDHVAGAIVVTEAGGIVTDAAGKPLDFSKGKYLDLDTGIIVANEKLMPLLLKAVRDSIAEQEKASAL
Description: For estimation of inhibition of AtSAL1 activity by PAP analogue 12, 200 ng of purified recombinant SAL1 protein was incubated in 75 μl 2×activity buffer (200 mM Tris-MES pH 7.5, 2 mM Mg acetate) and Analogue 12 at a concentration of 0, 3.35, 13.4 or 50 μM for 1 hour at room temperature. The samples were then placed on ice, and 75 μl PAP added for a final reaction condition of 100 mM Tris-MES pH 7.5, 1 mM Mg acetate and 50 μM PAP. The reaction was allowed to proceed at 25 degrees Celsius for 5 minutes, then stopped by flash freezing in liquid nitrogen. The AMP formed from degradation of PAP by SAL1 was quantified by derivatization and resolving on HPLC. Duplicate treatments were carried out, and data presented as mean+/−standard error.

Molecule: CC1=CC(=O)CC(C)(C)C1(O)/C=C/C(C)=C\C(=O)O (stereo not shown) [ABA]
- time to ABA-induced stomatal closure (stomata; epidermal peels, FIGS. 5B and 5D): < 10 min
- ROS burst in guard cells (guard cells): ROS burst known to stimulate stomatal closure was observed in response to ABA treatment in wild type
- PAP accumulation stimulated by exogenous ABA [1]: stimulates PAP accumulation by four fold

Molecule: Nc1ncnc2c1ncn2[C@@H]1O[C@H](COP(=O)(O)OP(=O)(O)OP(=O)(O)O)[C@@H](O)[C@H]1O [ATP]
- accumulation of PAP in leaves [2]: significantly enhanced
- stomatal closure response to exogenous PAP with co-treatment (stomata): a stronger, cumulative response was achieved

Molecule: CCNC(=O)C1OC(n2cnc3c(N)ncnc32)C(O)C1O (stereo not shown) [Analogue 8, 5-(6-amino-9H-purin-9-yl)-N-ethyl-3,4-dihydroxytetrahydro-2-furancarboxamide]
- accumulation of PAP analogue in leaf tissue after spraying [3]: showed rapid accumulation of PAP analogues to levels comparable with those for PAP found in leaf tissue in vivo

Molecule: Nc1ncnc2c1nc(S)n2C1OC(CO)C(O)C1O (stereo not shown) [Analogue 12, 2-(6-amino-8-mercapto-9H-purin-9-yl)-5-(hydroxymethyl) tetrahydro-3,4-furandiol]
- accumulation of PAP analogue in leaf tissue after spraying [3]: showed rapid accumulation of PAP analogues to levels comparable with those for PAP found in leaf tissue in vivo
- inhibition of in vitro SAL1 activity (AtSAL1): inhibition of in vitro SAL1 activity
- inhibition of in vitro SAL1 activity (AtSAL1; listed as analogue 12): found to inhibit in vitro SAL1 activity

Molecule: COC(=O)C1OC(n2cnc3c(N)ncnc32)C(O)C1O (stereo not shown) [Analogue 13, methyl 5-(6-amino-9H-purin-9-yl)-3,4-dihydroxytetrahydro-2-furancarboxylate]
- accumulation of PAP analogue in leaf tissue after spraying [3]: showed rapid accumulation of PAP analogues to levels comparable with those for PAP found in leaf tissue in vivo

Molecule: Nc1ncnc2c1ncn2[C@@H]1O[C@H](CO)C[C@H]1O [Analogue 16, 3′-deoxyadenosine]
- stomatal closure in leaf peels (stomata; leaf peels of wild type plants, 1 hr, PAP 100 μM, ABA 100 μM, cordycepin 10 μM): elicited rapid stomatal closure similar to the PAP response

Molecule: [Cl-].[Li+] [LiCl]
- accumulation of PAP in leaves [2]: significantly enhanced
- stomatal closure response to exogenous PAP with co-treatment (stomata): a stronger, cumulative response was achieved

Molecule: CNC(=N)NCCC[C@H](N)C(=O)O [NMA, N(G)-methyl-L-arginine]
- effect of inhibitor on ABA-induced stomatal closure (stomata): reduced ABA-induced stomatal closure in Col-0Ler

Molecule: Cc1c2oc3c(C)ccc(C(=O)N[C@@H]4C(=O)N[C@H](C(C)C)C(=O)N5CCC[C@H]5C(=O)N(C)CC(=O)N(C)[C@@H](C(C)C)C(=O)O[C@@H]4C)c3nc-2c(C(=O)N[C@@H]2C(=O)N[C@H](C(C)C)C(=O)N3CCC[C@H]3C(=O)N(C)CC(=O)N(C)[C@@H](C(C)C)C(=O)O[C@@H]2C)c(N)c1=O [actinomycin D] (I: T[dV]P[Sar][NMeV] / II: T[dV]P[Sar][NMeV]; ester I:1-I:C, II:1-II:C; linker I:N-II:N via Actinocin(9to1))
- effect of inhibitor on ABA-induced stomatal closure (stomata): suppressed ABA-mediated closure to a lesser extent in ost1-2 alx8 than in the wild type

B1: Arabidopsis thaliana SAL1, mature recombinant protein (transit peptide excluded) (protein)
chain: T1 sequence (Q42546 1-353)
- kcat (enzyme activity against PAP): up to 6-fold decrease in kcat for the oxidized dimeric rSAL1
